# Laboratory results as given in PubChem BioAssay (NCI).
#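 Growth conditions: 96-well plates. Treatment: test compound, 48 hours, 5 concentrations. Analysis: linear interpolation between bracketing concentrations; unreached endpoints set to highest concentration. TGI marks complete inhibition of growth.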
# Columns and labels:
# Test in all cases: NCI tumour cell line growth inhibition, 48 h
# [1] = system: 786-0 renal
# [2] = system: A498 renal
# [3] = system: A549 NSCLC
# [4] = system: ACHN renal
# [5] = system: CAKI-1 renal
# [6] = system: COLO 205 colon
# [7] = system: DU-145 prostate
# [8] = system: EKVX NSCLC
# [9] = system: HCC-2998 colon
# [10] = system: HCT-116 colon
# [11] = system: HCT-15 colon
# [12] = system: HL-60(TB) leukemia
# [13] = system: HOP-62 NSCLC
# [14] = system: HOP-92 NSCLC
# [15] = system: HS 578T breast
# [16] = system: HT29 colon
# [17] = system: IGROV1 ovarian
# [18] = system: K-562 leukemia
# [19] = system: KM12 colon
# [20] = system: LOX IMVI melanoma
# [21] = system: M14 melanoma
# [22] = system: MALME-3M melanoma
# [23] = system: MCF7 breast
# [24] = system: MDA-MB-435
# [25] = system: MDA-N
# [26] = system: NCI-H226 lung
# [27] = system: NCI-H23 lung
# [28] = system: NCI-H460 lung
# [29] = system: NCI-H522 lung
# [30] = system: NCI/ADR-RES ovarian
# [31] = system: OVCAR-3 ovarian
# [32] = system: OVCAR-4 ovarian
# [33] = system: OVCAR-5 ovarian
# [34] = system: OVCAR-8 ovarian
# [35] = system: PC-3 prostate
# [36] = system: RXF 393 renal
# [37] = system: SF-268 CNS
# [38] = system: SF-295 CNS
# [39] = system: SF-539 CNS
# [40] = system: SK-MEL-2 melanoma
# [41] = system: SK-MEL-28 melanoma
# [42] = system: SK-MEL-5 melanoma
# [43] = system: SK-OV-3 ovarian
# [44] = system: SN12C renal
# [45] = system: SNB-19 CNS
# [46] = system: SNB-75 CNS
# [47] = system: SR leukemia
# [48] = system: SW-620 colon
# [49] = system: T-47D breast
# [50] = system: TK-10 renal
# [51] = system: U251 CNS
# [52] = system: UACC-257 melanoma
# [53] = system: UACC-62 melanoma
# [54] = system: CCRF-CEM leukemia
# [55] = system: MDA-MB-231 breast
# [56] = system: MOLT-4 leukemia
# [57] = system: RPMI-8226 leukemia
# [58] = system: UO-31 renal
# [59] = system: BT-549 breast
smiles,measurement,setting,value
O=P(O)(O)C=C=C1CCCCC1,TGI,[1],> 100 µM
same,TGI,[2],> 100 µM
same,TGI,[3],> 100 µM
same,TGI,[4],> 100 µM
same,TGI,[5],> 100 µM
same,TGI,[6],> 100 µM
same,TGI,[7],> 100 µM
same,TGI,[8],> 100 µM
same,TGI,[9],> 100 µM
same,TGI,[10],> 100 µM
same,TGI,[11],> 100 µM
same,TGI,[12],> 100 µM
same,TGI,[13],> 100 µM
same,TGI,[14],> 100 µM
same,TGI,[15],> 100 µM
same,TGI,[16],> 100 µM
same,TGI,[17],> 100 µM
same,TGI,[18],> 100 µM
same,TGI,[19],> 100 µM
same,TGI,[20],> 100 µM
same,TGI,[21],> 100 µM
same,TGI,[22],> 100 µM
same,TGI,[23],> 100 µM
same,TGI,[24],> 100 µM
same,TGI,[25],> 100 µM
same,TGI,[26],> 100 µM
same,TGI,[27],> 100 µM
same,TGI,[28],> 100 µM
same,TGI,[29],> 100 µM
same,TGI,[30],> 100 µM
same,TGI,[31],> 100 µM
same,TGI,[32],> 100 µM
same,TGI,[33],> 100 µM
same,TGI,[34],> 100 µM
same,TGI,[35],> 100 µM
same,TGI,[36],> 100 µM
same,TGI,[37],> 100 µM
same,TGI,[38],> 100 µM
same,TGI,[39],> 100 µM
same,TGI,[40],> 100 µM
same,TGI,[41],> 100 µM
same,TGI,[42],> 100 µM
same,TGI,[43],> 100 µM
same,TGI,[44],> 100 µM
same,TGI,[45],> 100 µM
same,TGI,[46],> 100 µM
same,TGI,[47],> 100 µM
same,TGI,[48],> 100 µM
same,TGI,[49],> 100 µM
same,TGI,[50],> 100 µM
same,TGI,[51],> 100 µM
same,TGI,[52],> 100 µM
same,TGI,[53],> 100 µM
O=c1nc2ccc3sc4ccccc4c(=O)c3n2c(=O)[nH]1,TGI,[1],> 100 µM
same,TGI,[2],> 100 µM
same,TGI,[3],> 100 µM
same,TGI,[4],> 100 µM
same,TGI,[5],> 100 µM
same,TGI,[54],> 100 µM
same,TGI,[6],> 100 µM
same,TGI,[7],> 100 µM
same,TGI,[8],> 100 µM
same,TGI,[9],> 100 µM
same,TGI,[10],> 100 µM
same,TGI,[11],> 100 µM
same,TGI,[12],> 100 µM
same,TGI,[13],> 100 µM
same,TGI,[15],> 100 µM
same,TGI,[16],> 100 µM
same,TGI,[17],> 100 µM
same,TGI,[18],> 100 µM
same,TGI,[19],> 100 µM
same,TGI,[20],> 100 µM
same,TGI,[22],> 100 µM
same,TGI,[23],> 100 µM
same,TGI,[55],> 100 µM
same,TGI,[24],> 100 µM
same,TGI,[25],> 100 µM
same,TGI,[56],> 100 µM
same,TGI,[26],> 100 µM
same,TGI,[27],> 100 µM
same,TGI,[28],> 100 µM
same,TGI,[29],> 100 µM
same,TGI,[30],> 100 µM
same,TGI,[31],> 100 µM
same,TGI,[32],> 100 µM
same,TGI,[33],> 100 µM
same,TGI,[34],> 100 µM
same,TGI,[35],> 100 µM
same,TGI,[57],> 100 µM
same,TGI,[36],> 100 µM
same,TGI,[37],> 100 µM
same,TGI,[38],> 100 µM
same,TGI,[39],> 100 µM
same,TGI,[41],> 100 µM
same,TGI,[42],> 100 µM
same,TGI,[44],> 100 µM
same,TGI,[45],> 100 µM
same,TGI,[46],> 100 µM
same,TGI,[47],> 100 µM
same,TGI,[48],> 100 µM
same,TGI,[50],> 100 µM
same,TGI,[51],> 100 µM
same,TGI,[52],> 100 µM
same,TGI,[58],> 100 µM
C[C@]12CC[C@H]3[C@@H](CCC4=C(Br)C(=O)C=C[C@@]43O)[C@@H]1CCC2=O,TGI,[1],81.2 µM
same,TGI,[2],> 100 µM
same,TGI,[3],> 100 µM
same,TGI,[4],> 100 µM
same,TGI,[59],81.1 µM
same,TGI,[5],> 100 µM
same,TGI,[54],31.7 µM
same,TGI,[6],> 100 µM
same,TGI,[7],68.7 µM
same,TGI,[8],> 100 µM
same,TGI,[10],80.1 µM
same,TGI,[11],52.7 µM
same,TGI,[12],81.6 µM
same,TGI,[13],> 100 µM
same,TGI,[14],75.9 µM
same,TGI,[15],> 100 µM
same,TGI,[16],> 100 µM
same,TGI,[17],> 100 µM
same,TGI,[18],> 100 µM
same,TGI,[19],> 100 µM
same,TGI,[20],> 100 µM
same,TGI,[21],> 100 µM
same,TGI,[22],> 100 µM
same,TGI,[23],> 100 µM
same,TGI,[55],> 100 µM
same,TGI,[24],> 100 µM
same,TGI,[25],> 100 µM
same,TGI,[56],> 100 µM
same,TGI,[26],> 100 µM
same,TGI,[27],> 100 µM
same,TGI,[28],63.4 µM
same,TGI,[29],38.1 µM
same,TGI,[30],> 100 µM
same,TGI,[31],> 100 µM
same,TGI,[32],> 100 µM
same,TGI,[33],> 100 µM
same,TGI,[34],80.2 µM
same,TGI,[35],> 100 µM
same,TGI,[57],> 100 µM
same,TGI,[36],57.1 µM
same,TGI,[37],> 100 µM
same,TGI,[38],> 100 µM
same,TGI,[39],> 100 µM
same,TGI,[40],> 100 µM
same,TGI,[41],> 100 µM
same,TGI,[42],> 100 µM
same,TGI,[43],> 100 µM
same,TGI,[44],> 100 µM
same,TGI,[45],> 100 µM
same,TGI,[47],58.8 µM
same,TGI,[48],> 100 µM
same,TGI,[50],94.2 µM
same,TGI,[51],> 100 µM
same,TGI,[52],63.8 µM
same,TGI,[53],> 100 µM
same,TGI,[58],> 100 µM
